Results: US12472193B2, “Methods and compositions for treating and preventing respiratory related diseases and conditions with xylitol-headgroup lipid analogs” (National Jewish Health, priority 2017, dated 2025)

Assays:
[1] = Inflammatory burden caused by intranasal inoculation of 18:1 DEPX; format: in vivo, mouse
Experimental: Doses of 18:1 DEPX ranging from 35 μg to 1 mg were administered to mice by intranasal inoculation. The inflammatory burden caused by delivery of the synthetic lipid to the mouse lung was assessed 24 hours following inoculation. At 24 hours, mice were sacrificed and BALF was collected. The cells in BALF were quantified and cell populations within the lavage fluid were assessed by staining and cytospin analysis.
In order to determine the dose of 18:1 DEPX that is used in RSV challenge experiments, the toxic effects of the lipid were studied by the inflammatory response it elicits following delivery. A range of doses of 18:1 DEPX, from 35 μg to 1 mg, was instilled intranasally to 6-8 week old female BALB/C mice. Mice were sacrificed 24 hours following lipid delivery to best assess immediate inflammatory response. Mouse lungs were lavaged with 1 mL PBS and BALF was assessed for total inflammatory cellular infiltrates quantitatively and further characterized for cell populations by cytospin.
Following quantification of cells in 1 mL BALF, cells were subjected to cytospin and fixed and stained on microscope slides. 500 cells were counted from each slide and the numbers of macrophages, neutrophils and lymphocytes recorded. Delivery of 18:1 DEPX to mice elicits an inflammatory response determined by the influx of neutrophils found in lavage. […] Therefore, a dose of 100 μg 18:1 DEPX was chosen to perform RSV challenge experiments.

RSV = assay: 18:1 DEPX interference with RSV infection in vivo (BALB/c mice); set-up: species or system mouse; settings: 250 μg 18:1 DEPX intranasal, day 6

## CCCCCCCCC=CCCCCCCCCOCC(COP(=O)(O)OCC(O)C(O)C(O)CO)OCCCCCCCCC=CCCCCCCCC (mixture of isomers) [18:1 DEPX, sn-1-O-octadecenyl, sn-2-O-octadecenyl sn-3 glycerol phosphoxylitol]
[1]; 35 μg, 75 μg, 150 μg and 250 μg intranasal, 24 hours
  BALF cell counts compared to PBS control: did not have cell counts distinguishable from the control
[1]; 75 μg intranasal, 24 hours
  neutrophils in BALF (cytospin): significant numbers of neutrophils
[1]; 300 μg, 500 μg and 1 mg intranasal, 24 hours
  BALF cell counts compared to PBS control: significantly higher cell counts
[1]; 1 mg intranasal
  mortality: One mouse in the group that received 1 mg of 18:1 DEPX died
[1]; intranasal, 24 hours
  dose giving significant cellular infiltrates compared to control mice: ≥ 300 µg
  doses accompanied with significant cellular infiltrates compared with PBS control: ≥ 300 µg
RSV
  reduction of viral burden by a factor of (qRT-PCR, FIGS. 12A and 12B): 6.2
